Columns and labels:
[1] = system: cGAS activity in THP1 cells; assay: Cellular assay: ISRE-Gaussia luciferase reporter THP1 cells transfected with ISD (Interferon Stimulatory DNA); format: cell-based; settings: Homo sapiens, THP-1; ISRE-Gaussia luciferase reporter THP1 cells transfected with 2 μg/mL ISD, 16 hours; read-out: THP1-ISD (Inhibition of cGAS activity in THP1 cells, IC50)
Experimental: (§1) A reporter THP1 cell line harboring a gene encoding Gaussia Luciferase under the control of 5 tandem repeats of interferon-stimulated response elements (ISRE) was used to test inhibition of cGAS activity by synthetic compounds in human cells. These cells were plated on 96-well plates at 0.3×10^6/well and incubated with various concentrations of compounds or DMSO for 5 min, followed by transfection of 2 μg/mL of ISD (Interferon Stimulatory DNA, a 45 bp DNA oligo) or mock transfected using lipofectamine 2000 (Life Technology) method, according to manufacturer's instructions. 16 hours later, 15 μL of the media from each well is transferred to a new plate, 50 μL of solution containing 50 mM Hepes-NaOH, 50 mM NaCl, 10 mM EDTA, 1 μM of coeleanterazine was added to each well and luminescence was measured immediately. Fold increase in luminescence compared to mock transfection is plotted against concentrations of each compound, and IC50 is calculated using Graphpad. To evaluate the specificity of a compound, the same procedure was performed except that cells were transfected with 2 μg/mL poly(I:C) or infected with Sendai Virus (SeV) at 50 Unit/mL, which are known to activate the RIG-I-MAVS pathway. A specific inhibitory compound should inhibit interferon induction by DNA but have minimal effect on poly(I:C) or Sendai virus induced interferon reporter gene expression.

[2] = molecular target: T1, recombinant cGAS (aa147-522) (Homo sapiens, UniProt Q8N884); assay: In vitro assay for inhibition of cGAS activity (ATP consumption, Kinase Glo); format: biochemical; settings: 37° C. 20 minutes, read-out: Activity (Inhibition of cGAS enzyme activity in vitro, IC50)
T1 construct: recombinant cGAS (aa147-522); His6-SUMO (N, cleaved yes); made in house; host or cells: E. coli BL21/pLys
In short: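 Human cGAS (aa147-522) at 1.5 ng/μL incubated with serially diluted compound at 37° C for 20 min; remaining ATP read by Kinase Glo luminescence. IC50 from percent ATP consumption plotted against log compound concentration.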

[3] = system: RIG-I-MAVS pathway; assay: Specificity assay: ISRE reporter THP1 cells infected with Sendai Virus (SeV); format: cell-based; settings: Homo sapiens, THP-1; ISRE-Gaussia luciferase reporter THP1 cells infected with Sendai Virus (SeV) at 50 Unit/mL
Experimental: as §1

T1 sequence (Q8N884 147-522): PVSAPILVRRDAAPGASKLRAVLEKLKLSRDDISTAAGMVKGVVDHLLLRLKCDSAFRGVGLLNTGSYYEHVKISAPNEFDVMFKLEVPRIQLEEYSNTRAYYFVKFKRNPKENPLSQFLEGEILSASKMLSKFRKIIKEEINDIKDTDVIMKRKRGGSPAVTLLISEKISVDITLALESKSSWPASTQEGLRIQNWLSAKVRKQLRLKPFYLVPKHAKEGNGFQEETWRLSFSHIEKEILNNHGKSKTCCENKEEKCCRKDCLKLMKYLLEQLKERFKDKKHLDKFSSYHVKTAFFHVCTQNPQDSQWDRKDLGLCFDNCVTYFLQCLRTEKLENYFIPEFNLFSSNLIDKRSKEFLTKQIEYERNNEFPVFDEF

Row | SMILES | IC50 [1] [µM] | IC50 [2] [µM] | IC50 [3] [µM]
1 | COc1cc(/C=C2\SC(=O)N(C)C2=O)c(Br)cc1O [Ex28] | ≤ 2.5 | ≤ 0.5 | ≥ 10
2 | COc1cc(/C=C2\Sc3ccccc3C2=O)c(Br)cc1O [Ex44] | ≤ 2.5 | 0.5 to 10 | –
3 | COc1cc(/C=C2\Sc3ncccc3C2=O)c(Br)cc1O [Ex45] | 2.5 to 10 | ≤ 0.5 | –
4 | CN1C(=O)S/C(=C\c2cc(OCc3ccncc3)c(O)cc2Br)C1=O [Ex53] | ≤ 2.5 | 0.5 to 10 | –
5 | CN1C(=O)S/C(=C\c2cc(OC(F)(F)F)c(O)cc2Br)C1=O [Ex57] | ≤ 2.5 | 0.5 to 10 | 2.5 to 10
6 | COc1cc(/C=C2\SC(=O)N(C)C2=O)c(Br)cc1NS(=O)(=O)c1cnc(N)s1 [Ex61] | ≤ 2.5 | 0.5 to 10 | –
7 | COc1cc(/C=C2\SC(=O)N(C)C2=O)c(Br)c(F)c1O [Ex63] | 2.5 to 10 | ≤ 0.5 | ≥ 10
8 | COc1cc(/C=C2\SC(=O)N(C)C2=O)c(I)cc1O [Ex65] | 2.5 to 10 | ≤ 0.5 | ≥ 10
9 | CN1C(=O)S/C(=C\c2cc(OCc3cccc4[nH]ccc34)c(O)cc2Br)C1=O [Ex67] | 2.5 to 10 | 0.5 to 10 | –
10 | CN1C(=O)S/C(=C\c2cc(OCc3ccnc4[nH]cnc34)c(O)cc2Br)C1=O [Ex68] | ≤ 2.5 | ≤ 0.5 | ≥ 10
11 | O=C1/C(=C/c2cc(OC(F)(F)F)c(O)cc2Br)Sc2ncccc21 [Ex70] | 2.5 to 10 | 0.5 to 10 | ≥ 10
12 | Nc1ncncc1COc1cc(/C=C2\Sc3ncccc3C2=O)c(Br)cc1O [Ex73] | 2.5 to 10 | ≤ 0.5 | ≥ 10
13 | COc1cc(/C=C2\Sc3ncccc3C2=O)c(Br)c(F)c1O [Ex75] | 2.5 to 10 | ≤ 0.5 | ≥ 10
14 | CC(Oc1cc(/C=C2\SC(=O)N(C)C2=O)c(Br)cc1O)c1cncnc1N (centres unmarked) [Ex80] | 2.5 to 10 | ≤ 0.5 | ≥ 10
15 | CN1C(=O)S/C(=C\c2cc(OCc3cnc(N)nc3)c(O)c(F)c2Br)C1=O [Ex81] | ≤ 2.5 | ≤ 0.5 | ≥ 10
16 | CN1C(=O)S/C(=C\c2cc(OCCc3cnc(N)nc3)c(O)cc2Br)C1=O [Ex82] | ≤ 2.5 | ≤ 0.5 | –
17 | CN1C(=O)S/C(=C\c2cc(OCC3CCCCC3)c(O)cc2Br)C1=O [Ex86] | 2.5 to 10 | 0.5 to 10 | 2.5 to 10
18 | CC(C)C(=O)N1CCC(COc2cc(/C=C3\SC(=O)N(C)C3=O)c(Br)cc2O)CC1 [Ex87] | 2.5 to 10 | 0.5 to 10 | ≥ 10
19 | CN1C(=O)S/C(=C\c2cc(OCc3cccnc3)c(O)cc2Br)C1=O [Ex90] | 2.5 to 10 | ≤ 0.5 | –
20 | CN1C(=O)S/C(=C\c2cc(OCc3cn[nH]c3)c(O)cc2Br)C1=O [Ex92] | ≤ 2.5 | ≤ 0.5 | ≥ 10
21 | CN1C(=O)S/C(=C\c2cc(OCc3cnc(Cl)nc3)c(O)cc2Br)C1=O [Ex93] | 2.5 to 10 | ≤ 0.5 | ≥ 10
22 | CN1C(=O)S/C(=C\c2cc(OCc3cccnc3)c(O)c(F)c2Br)C1=O [Ex106] | 2.5 to 10 | ≤ 0.5 | –
23 | CN1C(=O)S/C(=C\c2cc(OCc3cnc(Cl)nc3)c(O)c(F)c2Br)C1=O [Ex107] | 2.5 to 10 | 0.5 to 10 | –
24 | Cc1nc(N)ncc1COc1cc(/C=C2\SC(=O)N(C)C2=O)c(Br)c(F)c1O [Ex108] | ≤ 2.5 | ≤ 0.5 | ≥ 10
25 | CCOc1cc(/C=C2\Sc3ncccc3C2=O)c(Br)cc1O [Ex112] | 2.5 to 10 | ≤ 0.5 | –

Row | SMILES | IC50 [1] [µM] | IC50 [2] [µM] | IC50 [3] [µM]
26 | O=C1/C(=C/c2cc(OCc3cccnc3)c(O)cc2Br)Sc2ncccc21 [Ex113] | 2.5 to 10 | ≤ 0.5 | –
27 | Cc1ncc(COc2cc(/C=C3\Sc4ncccc4C3=O)c(Br)cc2O)cn1 [Ex114] | 2.5 to 10 | ≤ 0.5 | –
28 | O=C1/C(=C/c2cc(OCc3cnc(Cl)nc3)c(O)cc2Br)Sc2ncccc21 [Ex115] | 2.5 to 10 | ≤ 0.5 | –
29 | Cc1nc(N)ncc1COc1cc(/C=C2\Sc3ncccc3C2=O)c(Br)cc1O [Ex116] | ≤ 2.5 | ≤ 0.5 | –
30 | Nc1ncc(COc2cc(/C=C3\Sc4ncccc4C3=O)c(Br)cc2O)c(C2CC2)n1 [Ex117] | 2.5 to 10 | ≤ 0.5 | –
31 | CC(Oc1cc(/C=C2\Sc3ncccc3C2=O)c(Br)cc1O)c1cnc(N)nc1 (centres unmarked) [Ex122] | ≤ 2.5 | ≤ 0.5 | ≥ 10
32 | Nc1ncc(COc2cc(/C=C3\Sc4ncccc4C3=O)c(Br)c(F)c2O)cn1 [Ex123] | ≤ 2.5 | ≤ 0.5 | ≥ 10
33 | CC(Oc1cc(/C=C2\Sc3ncccc3C2=O)c(Br)c(F)c1O)c1cnc(N)nc1 (centres unmarked) [Ex124] | 2.5 to 10 | ≤ 0.5 | –
34 | CN1C(=O)S/C(=C\c2cc(OCc3ccc(N)nc3)c(O)cc2Br)C1=O [Ex131] | 2.5 to 10 | 0.5 to 10 | 2.5 to 10
35 | CC(C)n1ccc(COc2cc(/C=C3\SC(=O)N(C)C3=O)c(Br)cc2O)cc1=O [Ex135] | 2.5 to 10 | 0.5 to 10 | ≥ 10
36 | CN1C(=O)S/C(=C\c2cc(OCc3cnc[nH]3)c(O)cc2Br)C1=O [Ex137] | 2.5 to 10 | 0.5 to 10 | ≥ 10
37 | CN1C(=O)S/C(=C\c2cc(OCc3ncc(N)cn3)c(O)cc2Br)C1=O [Ex139] | 2.5 to 10 | 0.5 to 10 | ≥ 10
38 | CN1C(=O)S/C(=C\c2cc(OCc3cncnc3)c(O)c(F)c2Br)C1=O [Ex185] | 2.5 to 10 | ≤ 0.5 | –
39 | CN1C(=O)S/C(=C\c2cc(OCc3cnc(NCc4cccnc4)nc3)c(O)c(F)c2Br)C1=O [Ex189] | 2.5 to 10 | 0.5 to 10 | –
40 | Cc1ncc(COc2cc(/C=C3\SC(=O)N(C)C3=O)c(Br)c(F)c2O)c(N)n1 [ExA5] | 2.5 to 10 | ≤ 0.5 | –
41 | CC(Oc1cc(/C=C2\Sc3ncccc3C2=O)c(Br)cc1O)c1cnc(NCCO)nc1 (centres unmarked) [ExA9] | 2.5 to 10 | ≤ 0.5 | –
42 | CN1C(=O)S/C(=C\c2cc(OCC(=O)c3cnc(N)nc3)c(O)c(F)c2Br)C1=O [ExA10] | 2.5 to 10 | 0.5 to 10 | –
43 | Nc1ncc(COc2cc(/C=c3\sc4nccn4c3=O)c(Br)cc2O)cn1 [ExA11] | ≤ 2.5 | 0.5 to 10 | –
44 | CC(Oc1cc(/C=c2\sc3nccn3c2=O)c(Br)c(F)c1O)c1cnc(N)nc1 (centres unmarked) [ExA12] | ≥ 10 | 0.5 to 10 | –
45 | CC(Oc1cc(/C=C2\Sc3ncc(F)cc3C2=O)c(Br)c(F)c1O)c1cnc(N)nc1 (centres unmarked) [ExA13] | 2.5 to 10 | ≤ 0.5 | –
46 | CN1C(=O)S/C(=C\c2cc(OCc3cnc([S+](C)[O-])nc3N)c(O)c(F)c2Br)C1=O (centres unmarked) [ExA14] | ≥ 10 | ≤ 0.5 | –
47 | CN1C(=O)S/C(=C\c2cc(OCc3cncnc3N)c(O)c(F)c2Br)C1=O [ExA17] | ≥ 10 | ≤ 0.5 | –
48 | CC(Oc1cc(/C=C2\SC(=O)N(C)C2=O)c(Br)c(F)c1O)c1cncnc1N (centres unmarked) [ExA18] | ≥ 10 | 0.5 to 10 | –
49 | CN1C(=O)S/C(=C\c2cc(OCc3cnc(Cl)nc3N)c(O)c(F)c2Br)C1=O [ExA19] | 2.5 to 10 | ≤ 0.5 | –

Reference: patent publication US12065416B2, “cGAS antagonist compounds” (IMMUNESENSOR THERAPEUTICS, INC., priority 2016, dated 2024)
